This note sets out measurements from patent US12264146B2, “Rho kinase inhibitor, method for preparing same and uses thereof” (BEIJING INCREASE INNOVATIVE DRUG CO., LTD., priority 2018, dated 2025).

Molecules are shown by their SMILES.

Data set [1] deals with subarachnoid hemorrhage in rats. The data set is described as follows: Rat subarachnoid hemorrhage (SAH) model by intravascular puncture, Sugawara bleeding score. The format is in vivo. More on the design: dose or concentration left out as unconfirmed. The following applies: tail vein injection, 2 administrations 4 h apart, scored 24 h after first administration (Sugawara). As for the experimental part: Rat subarachnoid hemorrhage (SAH) model was built by intravascular puncture. After being weighed, the rats were anesthetized with sodium pentobarbital (50 mg/kg) or chloral hydrate (300 mg/kg) by intraperitoneal injection, then fixed on their back and maintained the animal's body temperature at about 37° C. The rats' neck skin was shaved for surgery, a median incision was made on the neck, and muscle and fascia were separated along the inner edge of stemocleidomastoid muscle to expose the main and bifurcation of right common carotid artery, and expose the external and internal carotid arteries.
The bifurcation of internal carotid artery was gently clamped with ophthalmic forceps, the bifurcation of the internal carotid artery and the external carotid artery was pierced with a 6-gauge syringe needle, the ophthalmic forceps holding the bifurcation of internal carotid artery was slightly loosen, and No. 3 fishing thread was used to perform a puncture at the bleeding point, the ophthalmic forceps on the internal carotid artery was loosen, and the fishing thread was inserted into skull. […] After staying for 15 seconds, the thread for puncture was completely removed, and the skin was sutured after compression to stop the bleeding. 1.6 million units of penicillin potassium (400,000 units/ml, 0.2 ml/rat) was intramuscularly injected to avoid wound infection. For the sham operation group, the thread for puncture was removed when resistance was felt without piercing the bifurcation of the anterior cerebral artery and the middle cerebral artery, while the remaining operation steps were the same as the model group. After the operation, the rats were transferred to a thermal insulation blanket, then transferred to a squirrel cage when they were basically awake, and kept normally.
In this test experimental, 32 groups were set, i.e., Groups 1 to 32, in which Group 1 was a normal control group (healthy rats), Group 2 was a sham operation control group (not modeling by puncture), Group 3 was a model control group (modeling by puncture, administrated with normal saline), Group 4 was a positive control group (modeling by puncture, administrated with fasudil hydrochloride injection), and Groups 5 to 32 were test groups of the compounds of the present application (modeling by puncture, respectively administrated with the compounds of the present application); and there were 8 animals (purchased from SPF (Beijing) Biotechnology Co., Ltd., the certificate number was SYXK (Beijing) 2016-0002) in each group, half of them were female and half of them were male. The animals were subjected to fasting for 12 to 18 hours without prohibition of drinking water before modeling. […] The rats were euthanized 24 h after the first administration, and the brains were taken. According to Sugawara's method (Reference: Sugawara T, Ayer R, Jadhav V, et al. A new grading system evaluating bleeding scale in filament perforation subarachnoid hemorrhage rat model. J Neurosci Methods. 2008, 167(2):327-34), the subarachnoid hemorrhage amounts were scored, and the scoring results were as follows: […]

The nature of data set [2]: Toxicity test on endothelial cells EA.hy926, CCK-8 cell viability. The format is cell-based. The following applies: human, 1000~0.32 μmol/L, 5-fold dilution, read-out: IC50 of Test compound (cytotoxicity on EA.hy926 cells). Here is the method:
In this test example, 31 groups, i.e., Groups 1 to 31, were set, in which Group 1 was a blank control group, Group 2 was a normal control group, Group 3 was a positive control group, and Groups 4 to 31 were test groups of the compounds of the present application. The specific test operation comprised: 100 μL of endothelial cells EA.hy926 (purchased from Suzhou Beina Chuanglian Biotechnology Co., Ltd.) with a density of 5×10^4 was added to each well of a 96-well plate, and transferred to an incubator at 37° C. with 5% CO2 and saturated humidity conditions and cultured for 24 hours, 100 μL of 2× the test compound solution prepared and diluted with DMEM medium containing 10% fetal bovine serum was added, in which the test compound added in the positive control group was Fasudil hydrochloride (purchased from Beijing Sihuan Pharmaceutical Co., Ltd., SFDA approval number H20173349) solution with different concentrations, an equal volume of DMEM medium was added in the blank control group, an equal volume of PBS buffer was added in the normal control group, and a duplicate well was set for each concentration point. After adding the test compound, the culture was continued in the incubator for 24 hours, then 20 μL of CCK-8 detection solution (purchased from Beijing Solarbio Science & Technology Co., Ltd., Cat. No. CA1210) was added to each well, interacted at 37° C. for 2.5 hours, shaken and mixed well, and then the absorbance value at 450 nm was detected.
OD values were detected, and the cell viability values of test groups of different concentrations were calculated according to the cell viability calculation formula as follows: Cell viability=(Atest group−Ablank control)/(Anormal control−Ablank control)*100%
wherein A represented absorbance value at 450 nm.
Prism6.0 was used to obtain the inhibitor concentration-viability curve and to calculate the IC50 of the test compound, the correlation coefficient R^2>0.99; the inhibitor concentration-viability curves of Fasudil hydrochloride, R-YK1601, R-YK1603, R-YK1606, R-YK1607, R-YK1610 were shown in FIGS. 1 to 6, in which the abscissa was the logarithm on base 10 of the concentration of the test compound, and the ordinate was the cell activity (i.e., cell viability).

Usually IC50 stands for the midpoint of a concentration-inhibition curve. `CC1CNCCCN1S(=O)(=O)c1cccc2c(O)ncc(C3CC3)c12` (racemic) [Compound YK1600-1, 4-cyclopropyl-5-((2-methyl-1,4-diazacycloheptan-1-yl)sulfonyl)isoquinolin-1-ol]: the “Cerebral hemorrhage volume score (x ± s)” value in data set [1] worked out at 14.36 ± 2.53. For the same compound, in data set [2], the half-maximal inhibitory concentration (IC50) at 24 h was found to be 97.8 µM.

Take `COc1ncc(C2CC2)c2c(S(=O)(=O)N3CCCNCC3C)cccc12` (racemic) [Compound YK1600-2, 4-cyclopropyl-1-methoxy-5-((2-methyl-1,4-diazacycloheptan-1-yl)sulfonyl)isoquinoline]: the “Cerebral hemorrhage volume score (x ± s)” value in data set [1] is 14.49 ± 2.62. The IC50 at 24 h in data set [2] was found to be 85.1 µM.

As to `CC1CNCCCN1S(=O)(=O)c1cccc2c(O)nccc12` (racemic) [Compound YK1601, 5-((2-methyl-1,4-diazacycloheptan-1-yl)sulfonyl)isoquinolin-1-ol], the “Cerebral hemorrhage volume score (x ± s)” value in data set [1] came out at 12.75 ± 2.01. Also, the half-inhibitory concentration (IC50) at 24 h in data set [2] stood at 496 µM.

Take `COc1nccc2c(S(=O)(=O)N3CCCNCC3C)cccc12` (racemic) [Compound YK1602, 1-methoxy-5-((2-methyl-1,4-diazacycloheptan-1-yl)sulfonyl)isoquinoline]: the “Cerebral hemorrhage volume score (x ± s)” value in data set [1] was found to be 12.92 ± 2.03. Also, the IC50 at 24 h in data set [2] is 333 µM.

With `CC1CNCCCN1S(=O)(=O)c1cccc2cnccc12` (racemic) [Compound YK1603, 5-((2-methyl-1,4-diazacycloheptan-1-yl)sulfonyl)isoquinoline], the “Cerebral hemorrhage volume score (x ± s)” value in data set [1] amounted to 12.96 ± 1.99. Besides, the IC50 at 24 h in data set [2] was 176 µM.

On to `CC1CNCCCN1S(=O)(=O)c1cccc2c(O)ncc(F)c12` (racemic) [Compound YK1604, 4-fluoro-5-((2-methyl-1,4-diazacycloheptan-1-yl)sulfonyl)isoquinolin-1-ol], for which the “Cerebral hemorrhage volume score (x ± s)” value in data set [1] is given as 13.08 ± 1.97. Also, the IC50 at 24 h in data set [2] amounted to 130 µM.

For the compound `COc1ncc(F)c2c(S(=O)(=O)N3CCCNCC3C)cccc12` (racemic) [Compound YK1605, 4-fluoro-1-methoxy-5-((2-methyl-1,4-diazacycloheptan-1-yl)sulfonyl)isoquinoline], in data set [1], the “Cerebral hemorrhage volume score (x ± s)” value worked out at 13.95 ± 2.02. In addition, in data set [2], the IC50 at 24 h was 103 µM.

Consider `CC1CNCCCN1S(=O)(=O)c1cccc2c(O)ncc(Cl)c12` (racemic) [Compound YK1606, 4-chloro-5-((2-methyl-1,4-diazacycloheptan-1-yl)sulfonyl)isoquinolin-1-ol], for which, in data set [1], the “Cerebral hemorrhage volume score (x ± s)” value turned out to be 13.71 ± 2.03. For the same compound, the IC50 at 24 h in data set [2] came out at 98 µM.

Consider `CCc1cnc(O)c2cccc(S(=O)(=O)N3CCCNCC3C)c12` (racemic) [Compound YK1607, 4-ethyl-5-((2-methyl-1,4-diazacycloheptan-1-yl)sulfonyl)isoquinolin-1-ol], for which, in data set [1], the “Cerebral hemorrhage volume score (x ± s)” value came out at 13.09 ± 2.09. In addition, the IC50 at 24 h in data set [2] was 139 µM.

Consider `O=S(=O)(c1cccc2cnccc12)N1CCCNCC1C1CC1` (racemic) [Compound YK1608, 5-((2-cyclopropyl-1,4-diazacycloheptan-1-yl)sulfonyl)isoquinoline], for which the “Cerebral hemorrhage volume score (x ± s)” value in data set [1] came out at 13.98 ± 2.01. Also, the IC50 at 24 h in data set [2] was found to be 165 µM.

With `CC(C)C1CNCCCN1S(=O)(=O)c1cccc2c(O)nccc12` (racemic) [Compound YK1609, 5-((2-isopropyl-1,4-diazacycloheptan-1-yl)sulfonyl)isoquinolin-1-ol], the “Cerebral hemorrhage volume score (x ± s)” value in data set [1] is recorded as 13.27 ± 1.96. Moreover, the IC50 at 24 h in data set [2] was 228 µM.

On to `CCC1CNCCCN1S(=O)(=O)c1cccc2c(OC)nccc12` (racemic) [Compound YK1610, 5-((2-ethyl-1,4-diazacycloheptan-1-yl)sulfonyl)-1-methoxyisoquinoline], for which, in data set [1], the “Cerebral hemorrhage volume score (x ± s)” value was determined as 13.83 ± 2.01. Further, the IC50 at 24 h in data set [2] was 98.8 µM.

Regarding `CCCCC1CNCCCN1S(=O)(=O)c1cccc2c(O)nccc12` (racemic) [Compound YK1611, 5-((2-butyl-1,4-diazacycloheptan-1-yl)sulfonyl)isoquinolin-1-ol], the “Cerebral hemorrhage volume score (x ± s)” value in data set [1] is recorded as 13.39 ± 2.03. Also, the IC50 at 24 h in data set [2] stood at 184 µM.

For the compound `COc1nccc2c(S(=O)(=O)N3CCCNCC3CCC(C)C)cccc12` (racemic) [Compound YK1612, 5-((2-isopentyl-1,4-diazacycloheptan-1-yl)sulfonyl)-1-methoxyisoquinoline], in data set [1], the “Cerebral hemorrhage volume score (x ± s)” value is on record as 14.05 ± 1.96. Further, the IC50 at 24 h in data set [2] stood at 89.6 µM.
